Experiment [1] has as its system Zymoseptoria tritici. In words: Leaf blotch of wheat (SEPTTR), disease control on wheat seedlings. In kind it is in vivo. To be noted: for pest or weed control at 100 ppm: high volume application at 100 ppm; for pest or weed control at 121.5 g/ha: low volume application at 121.5 g/H. Here is the method: Technical grades of materials were dissolved in acetone, which were then mixed with nine volumes of water containing 110 ppm Triton X-100. The fungicide solutions were applied onto wheat seedlings using an automated booth sprayer to run-off. All sprayed plants were allowed to air dry prior to further handling. All fungicides were evaluated using the aforementioned method for their activity vs. all target diseases, unless stated otherwise. Wheat leaf blotch and brown rust activity were also evaluated using track spray applications, in which case the fungicides were formulated as EC formulations, containing 0.1% Trycol 5941 in the spray solutions. Wheat plants (variety Yuma) were grown from seed in a greenhouse in 50% mineral soil/50% soil-less Metro mix until the first leaf was fully emerged, with 7-10 seedlings per pot. These plants were inoculated with an aqueous spore suspension of Zymoseptoria tritici either prior to or after fungicide treatments. After inoculation the plants were kept in 100% relative humidity (one day in a dark dew chamber followed by two to three days in a lighted dew chamber at 20° C.) to permit spores to germinate and infect the leaf. The plants were then transferred to a greenhouse set at 20° C. for disease to develop. When disease symptoms were fully expressed on the 1st leaves of untreated plants, infection levels were assessed on a scale of 0 to 100 percent disease severity. Percent disease control was calculated using the ratio of disease severity on treated plants relative to untreated plants.

In experiment [2] the test system is Puccinia triticina. In words: Wheat brown rust (PUCCRT), disease control on wheat seedlings. In kind it is in vivo. To be noted: for pest or weed control at 100 ppm: high volume application at 100 ppm; for pest or weed control at 121.5 g/ha: low volume application at 121.5 g/H. On the procedure:
Technical grades of materials were dissolved in acetone, which were then mixed with nine volumes of water containing 110 ppm Triton X-100. The fungicide solutions were applied onto wheat seedlings using an automated booth sprayer to run-off. All sprayed plants were allowed to air dry prior to further handling. All fungicides were evaluated using the aforementioned method for their activity vs. all target diseases, unless stated otherwise. Wheat leaf blotch and brown rust activity were also evaluated using track spray applications, in which case the fungicides were formulated as EC formulations, containing 0.1% Trycol 5941 in the spray solutions. Wheat plants (variety Yuma) were grown from seed in a greenhouse in 50% mineral soil/50% soil-less Metro mix until the first leaf was fully emerged, with 7-10 seedlings per pot. These plants were inoculated with an aqueous spore suspension of Puccinia triticina either prior to or after fungicide treatments. After inoculation the plants were kept in a dark dew room at 22° C. with 100% relative humidity overnight to permit spores to germinate and infect the leaf. The plants were then transferred to a greenhouse set at 24° C. for disease to develop. Fungicide formulation, application and disease assessment followed the procedures as described in the Example A.

[3] abbreviates: 24 h, 1 Day Protectant, read-out: SEPTTR disease control, 1DP, LV activity.
[4] abbreviates: 72 h, 3 Day Curative, read-out: SEPTTR disease control, 3DC, LV activity.
[5] abbreviates: 24 h, 1 Day Protectant, read-out: PUCCRT disease control, 1DP, LV activity.
Where [6] appears, read: 72 h, 3 Day Curative, read-out: PUCCRT disease control, 3DC, LV activity.

This passage reports pest or weed control results from patent US20180186742A1, “PICOLINAMIDES AS FUNGICIDES” (Dow AgroSciences LLC, priority 2017, published 2018).

Each structure is given as a SMILES string. Where two headings read alike, the source gives them in different places.

On to `COc1ccnc(C(=O)N[C@@H](C)C(=O)O[C@@H](C)[C@@H](c2ccc(C)cc2C)C2CCC2)c1O` [Compound 149], for which the pest or weed control at 100 ppm in experiment [1] (24 h, 1 Day Protectant, read-out: SEPTTR disease control, 1DP, HV activity) is less than 80%; in experiment [1] (72 h, 3 Day Curative, read-out: SEPTTR disease control, 3DC, HV activity) it was greater than 80%; in experiment [2] (24 h, 1 Day Protectant, read-out: PUCCRT disease control, 1DP, HV activity), less than 80%; in experiment [2] (72 h, 3 Day Curative, read-out: PUCCRT disease control, 3DC, HV activity), less than 80%.

As to `COc1ccnc(C(=O)N[C@@H](C)C(=O)O[C@@H](C)[C@@H](c2ccccc2)C(C)C)c1OC(C)=O` [Compound 160], the pest or weed control at 121.5 g/ha in experiment [1] (setting [3]) is less than 80%; in experiment [1] (setting [4]), greater than 80%; in experiment [2] (setting [5]), greater than 80%; in experiment [2] (setting [6]) it was less than 80%.

On to `COc1ccnc(C(=O)N[C@@H](C)C(=O)O[C@@H](C)[C@@H](c2ccccc2)C2CCCC2)c1OC(C)=O` [Compound 161], for which the pest or weed control at 121.5 g/ha in experiment [1] (setting [3]) is less than 80%; in experiment [1] (setting [4]), greater than 80%; in experiment [2] (setting [5]) it was greater than 80%; in experiment [2] (setting [6]), less than 80%.

In the case of `COc1ccnc(C(=O)N[C@@H](C)C(=O)O[C@@H](C)[C@@H](c2ccccc2)C2CCCC2)c1OCOC(C)=O` [Compound 163], the pest or weed control at 121.5 g/ha in experiment [1] (setting [3]) was less than 80%; in experiment [1] (setting [4]) it was greater than 80%; in experiment [2] (setting [5]) it was greater than 80%; in experiment [2] (setting [6]), less than 80%.

For `COc1ccnc(C(=O)N[C@@H](C)C(=O)O[C@@H](C)[C@H](c2ccccc2)C(C)C)c1OC(C)=O` [Compound 165], the pest or weed control at 121.5 g/ha in experiment [1] (setting [3]), in experiment [1] (setting [4]), in experiment [2] (setting [5]) and in experiment [2] (setting [6]) was greater than 80% each time.

On to `COc1ccnc(C(=O)N[C@@H](C)C(=O)O[C@@H](C)[C@H](c2ccc(C)cc2)C2CC2)c1OC(C)=O` [Compound 166], for which the pest or weed control at 121.5 g/ha is less than 80% in experiment [1] (setting [3]), greater than 80% in experiment [1] (setting [4]), greater than 80% in experiment [2] (setting [5]) and greater than 80% in experiment [2] (setting [6]).

Turning to `COc1ccnc(C(=O)N[C@@H](C)C(=O)O[C@@H](C)[C@H](c2ccc(C)cc2)C2CC2)c1OCOC(C)=O` [Compound 167], the pest or weed control at 121.5 g/ha in experiment [1] (setting [3]), in experiment [1] (setting [4]), in experiment [2] (setting [5]) and in experiment [2] (setting [6]) was greater than 80% in each case.

In the case of `COc1ccnc(C(=O)N[C@@H](C)C(=O)O[C@@H](C)[C@H](c2ccc(C)cc2)C(C)C)c1OC(C)=O` [Compound 168], the pest or weed control at 121.5 g/ha in experiment [1] (setting [3]) is less than 80%; in experiment [1] (setting [4]) it was less than 80%; in experiment [2] (setting [5]), greater than 80%; in experiment [2] (setting [6]), greater than 80%.

With `COc1ccnc(C(=O)N[C@@H](C)C(=O)OC(C)C(c2ccc(F)cc2)C(C)C)c1OC(C)=O` (stereo partly shown) [Compound 169], the pest or weed control at 121.5 g/ha in experiment [1] (setting [3]) is less than 80%; in experiment [1] (setting [4]) it was greater than 80%; in experiment [2] (setting [5]), greater than 80%; in experiment [2] (setting [6]), greater than 80%.

As for `COc1ccnc(C(=O)N[C@@H](C)C(=O)O[C@@H](C)[C@H](c2ccc(F)cc2)C2CC2)c1OC(C)=O` [Compound 170], the pest or weed control at 121.5 g/ha in experiment [1] (setting [3]), in experiment [1] (setting [4]), in experiment [2] (setting [5]) and in experiment [2] (setting [6]) was greater than 80% throughout.

For the compound `COc1ccnc(C(=O)N[C@@H](C)C(=O)O[C@@H](C)[C@H](c2ccc(F)cc2)C2CC2)c1OCOC(C)=O` [Compound 171], the pest or weed control at 121.5 g/ha in experiment [1] (setting [3]), in experiment [1] (setting [4]), in experiment [2] (setting [5]) and in experiment [2] (setting [6]) was greater than 80% throughout.

As to `CCC(CC)[C@@H](c1ccccc1)C(C)OC(=O)[C@H](C)NC(=O)c1nccc(OC)c1OC(C)=O` (stereo partly shown) [Compound 172], the pest or weed control at 121.5 g/ha in experiment [1] (setting [3]), in experiment [1] (setting [4]), in experiment [2] (setting [5]) and in experiment [2] (setting [6]) was greater than 80% throughout.

Regarding `COc1ccnc(C(=O)N[C@@H](C)C(=O)OC(C)[C@H](c2ccccc2)C2CCCC2)c1OC(C)=O` (stereo partly shown) [Compound 173], the pest or weed control at 121.5 g/ha in experiment [1] (setting [3]) was greater than 80%; in experiment [1] (setting [4]) it was greater than 80%; in experiment [2] (setting [5]), greater than 80%; in experiment [2] (setting [6]) it was less than 80%.

Turning to `CCC(CC)[C@@H](c1ccccc1)C(C)OC(=O)[C@H](C)NC(=O)c1nccc(OC)c1OCOC(C)=O` (stereo partly shown) [Compound 174], the pest or weed control at 121.5 g/ha in experiment [1] (setting [3]), in experiment [1] (setting [4]), in experiment [2] (setting [5]) and in experiment [2] (setting [6]) was greater than 80% each time.

Take `COc1ccnc(C(=O)N[C@@H](C)C(=O)OC(C)[C@H](c2ccccc2)C2CCCC2)c1OCOC(C)=O` (stereo partly shown) [Compound 175]: the pest or weed control at 121.5 g/ha in experiment [1] (setting [3]), in experiment [1] (setting [4]), in experiment [2] (setting [5]) and in experiment [2] (setting [6]) was greater than 80% throughout.

For `COc1ccnc(C(=S)N[C@@H](C)C(=O)OC(C)[C@H](c2ccccc2)C2CCCC2)c1OC(C)=O` (stereo partly shown) [Compound 176], the pest or weed control at 121.5 g/ha in experiment [1] (setting [3]) is greater than 80%; in experiment [1] (setting [4]), greater than 80%; in experiment [2] (setting [5]) it was greater than 80%; in experiment [2] (setting [6]), less than 80%.

As for `COCCC(=O)Oc1c(OC)ccnc1C(=O)N[C@@H](C)C(=O)O[C@@H](C)[C@H](c1ccc(C)cc1)C(C)C` [Compound 245], the pest or weed control at 121.5 g/ha in experiment [1] (setting [3]) is less than 80%; in experiment [2] (setting [5]), greater than 80%; in experiment [2] (setting [6]), greater than 80%.

As to `COCCC(=O)Oc1c(OC)ccnc1C(=O)N[C@@H](C)C(=O)O[C@@H](C)[C@H](c1ccc(F)c(C)c1)C(C)C` [Compound 246], the pest or weed control at 121.5 g/ha in experiment [1] (setting [3]), in experiment [2] (setting [5]) and in experiment [2] (setting [6]) was greater than 80% in each case.

Take `COCCC(=O)Oc1c(OC)ccnc1C(=O)N[C@@H](C)C(=O)O[C@@H](C)[C@H](c1ccc(OC)cc1F)C(C)C` [Compound 247]: the pest or weed control at 121.5 g/ha in experiment [1] (setting [3]) was less than 80%; in experiment [2] (setting [5]) it was greater than 80%; in experiment [2] (setting [6]), greater than 80%.

In the case of `COCCC(=O)Oc1c(OC)ccnc1C(=O)N[C@@H](C)C(=O)O[C@@H](C)[C@H](c1ccc(OC)c(F)c1)C(C)C` [Compound 248], the pest or weed control at 121.5 g/ha in experiment [1] (setting [3]), in experiment [2] (setting [5]) and in experiment [2] (setting [6]) was less than 80% throughout.

For the compound `COCCC(=O)Oc1c(OC)ccnc1C(=O)N[C@@H](C)C(=O)O[C@@H](C)[C@H](c1ccc(C)cc1OC)C(C)C` [Compound 249], the values for the pest or weed control at 121.5 g/ha in experiment [1] (setting [3]), in experiment [2] (setting [5]) and in experiment [2] (setting [6]) were less than 80%, greater than 80% and greater than 80%, respectively.

As for `COc1ccnc(C(=O)N[C@@H](C)C(=O)O[C@@H](C)[C@H](c2ccc(F)c(C)c2)C(C)C)c1OC(C)=O` [Compound 250], the pest or weed control at 121.5 g/ha in experiment [1] (setting [3]), in experiment [2] (setting [5]) and in experiment [2] (setting [6]) was greater than 80% each time.

Consider `COc1ccc([C@H](C(C)C)[C@H](C)OC(=O)[C@H](C)NC(=O)c2nccc(OC)c2OC(C)=O)c(F)c1` [Compound 251], for which the pest or weed control at 121.5 g/ha in experiment [1] (setting [3]) was less than 80%; in experiment [2] (setting [5]) it was greater than 80%; in experiment [2] (setting [6]) it was greater than 80%.
